Data on eight compounds can be found in the NIST ThermoML archive (doi:10.1016/j.jct.2012.05.029).

The nature of the data set: molar enthalpy of vaporization or sublimation. The settings on record: Liquid, Thermogravimetric Analysis.

The structures appear in SMILES notation. Numbers after ± are expanded uncertainties.

With `CCCCCCCCn1cc[n+](C)c1.O=S(=O)([N-]S(=O)(=O)C(F)(F)F)C(F)(F)F`, for the setting “541.8 K”, the molar enthalpy was determined as 29.3 ± 0.717 kcal/mol.

Turning to `CCCCCCCCCCn1cc[n+](C)c1.O=S(=O)([N-]S(=O)(=O)C(F)(F)F)C(F)(F)F`, the molar enthalpy (522 K) was 29.9 ± 0.717 kcal/mol.

In the case of `CCCCCCCCCCCCCCCCn1cc[n+](C)c1.O=S(=O)([N-]S(=O)(=O)C(F)(F)F)C(F)(F)F`, the molar enthalpy (541.8 K) amounted to 32.6 ± 0.717 kcal/mol.

For the compound `CCCCCC[n+]1ccn(C)c1.O=S(=O)([N-]S(=O)(=O)C(F)(F)F)C(F)(F)F`, the molar enthalpy (541.8 K) was determined as 28.2 ± 0.717 kcal/mol.

Turning to `CCCCCCCCCCCCCCCCCC[n+]1ccn(C)c1.O=S(=O)([N-]S(=O)(=O)C(F)(F)F)C(F)(F)F`, where the note is “582.5 K”, the molar enthalpy was found to be 33.1 ± 0.717 kcal/mol.

Turning to `CCCCCCCCCCCCn1cc[n+](C)c1.O=S(=O)([N-]S(=O)(=O)C(F)(F)F)C(F)(F)F`, the molar enthalpy (533.5 K) turned out to be 30.1 ± 0.717 kcal/mol.

As for `CCCCCCCCCCCCCCn1cc[n+](C)c1.O=S(=O)([N-]S(=O)(=O)C(F)(F)F)C(F)(F)F`, the molar enthalpy (541.8 K) was 31.7 ± 0.717 kcal/mol.

Take `CCCC[n+]1ccn(C)c1.O=S(=O)([N-]S(=O)(=O)C(F)(F)F)C(F)(F)F`: the molar enthalpy (541.8 K) was determined as 27.1 ± 0.717 kcal/mol.
